Values quoted from earlier work as cited in US7494668B2, “Fast water-dispersible domperidone tablets” (Laboratorio Medinfar-Produtos Farmaceuticos, S.A., priority 2004, dated 2009).

Compound	solubility in water
maleate	soluble in water
O=c1[nH]c2ccccc2n1CCCN1CCC(n2c(=O)[nH]c3cc(Cl)ccc32)CC1 [Domperidone, 5-chloro-1-[1-[3-(2-oxo-2,3-dihydro-1H-benzimidazol-1-yl)propyl]piperidine-4-yl]-1,3-dihydro-2H-benzimidazol-2-one]	practically insoluble in water
